{"source": "patent US12384797B2", "about": "“Thioeno[3,2-b] pyridin-7-amine compounds for treating familial dysautonomia” (PTC THERAPEUTICS, INC., priority 2019, dated 2025)"}
{"test_system": "Elongator complex protein 1 (ELP1, also referred to as IKBKAP)", "test": "IKBKAP-HTRF assay (IKBKAP protein in lysates of FD patient-derived fibroblasts)", "assay_type": "cell-based, human", "details": "48 hours incubation, 7-point concentration curve", "summary_of_the_method": "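FD patient-derived fibroblasts (10,000/well) were treated 48 h at 37 °C with a 7-point, 3.16-fold compound series in triplicate, then lysed. IKBKAP was read by sandwich HTRF (donor/acceptor anti-IKAP antibodies, overnight at 4 °C, 665/620 nm). MFI is ΔF over vehicle ΔF; EC2x is the concentration giving twice the vehicle IKBKAP level.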"}
{"smiles": "Cc1c([C@@H](C)N)sc2c(NCc3cccs3)cc(Cl)nc12", "note": "[Compound 56, 2-[(1R)-1-aminoethyl]-5-chloro-3-methyl-N-[(thiophen-2-yl)methyl]thieno[3,2-b]pyridin-7-amine]", "EC2x for IKBKAP protein expression (concentration producing two times the amount of IKBKAP protein vs DMSO vehicle control)": "* (An EC2x>1 μM is indicated by one star (*))", "MFI (maximum fold increase in IKBKAP protein abundance relative to the vehicle control)": "* (An MFI≤1.9 is indicated by one star (*))"}
{"smiles": "C[C@H](N)Cc1sc2c(NCc3cccs3)cc(Cl)nc2c1OC(F)F", "note": "[Compound 139, 2-[(2S)-2-aminopropyl]-5-chloro-3-(difluoromethoxy)-N-[(thiophen-2-yl)methyl]thieno[3,2-b]pyridin-7-amine]", "EC2x for IKBKAP protein expression (concentration producing two times the amount of IKBKAP protein vs DMSO vehicle control)": "***** (≤0.005 μM is indicated by five stars (*****))", "MFI (maximum fold increase in IKBKAP protein abundance relative to the vehicle control)": "**** (between >3.9 and ≤4.9 is indicated by four stars (****))"}
{"smiles": "Cc1c(C[C@@H](N)CS(C)(=O)=O)sc2c(NCc3ccco3)cc(Cl)nc12", "note": "[Compound 108, 2-[(2R)-2-amino-3-(methanesulfonyl)propyl]-5-chloro-N-[(furan-2-yl)methyl]-3-methylthieno[3,2-b]pyridin-7-amine]", "EC2x for IKBKAP protein expression (concentration producing two times the amount of IKBKAP protein vs DMSO vehicle control)": "**** (between >0.005 μM and ≤0.02 μM is indicated by four stars (****))", "MFI (maximum fold increase in IKBKAP protein abundance relative to the vehicle control)": "***** (>4.9 is indicated by five stars (*****))"}
{"smiles": "COC[C@H](N)Cc1sc2c(NCc3ccco3)cc(Cl)nc2c1C", "note": "[Compound 45, 2-[(2R)-2-amino-3-methoxypropyl]-5-chloro-N-[(furan-2-yl)methyl]-3-methylthieno[3,2-b]pyridin-7-amine]", "EC2x for IKBKAP protein expression (concentration producing two times the amount of IKBKAP protein vs DMSO vehicle control)": "***** (≤0.005 μM is indicated by five stars (*****))", "MFI (maximum fold increase in IKBKAP protein abundance relative to the vehicle control)": "***** (>4.9 is indicated by five stars (*****))"}
{"smiles": "Cc1c([C@@H](N)C(C)C)sc2c(NCc3ccco3)cc(Cl)nc12", "note": "[Compound 30, 2-[(1S)-1-amino-2-methylpropyl]-5-chloro-N-[(furan-2-yl)methyl]-3-methylthieno[3,2-b]pyridin-7-amine]", "EC2x for IKBKAP protein expression (concentration producing two times the amount of IKBKAP protein vs DMSO vehicle control)": "* (An EC2x>1 μM is indicated by one star (*))", "MFI (maximum fold increase in IKBKAP protein abundance relative to the vehicle control)": "* (An MFI≤1.9 is indicated by one star (*))"}
{"smiles": "C[C@H](N)c1cc2nc(Cl)cc(NCc3ccco3)c2s1", "note": "[Compound 24, 2-[(1S)-1-aminoethyl]-5-chloro-N-[(furan-2-yl)methyl]thieno[3,2-b]pyridin-7-amine]", "EC2x for IKBKAP protein expression (concentration producing two times the amount of IKBKAP protein vs DMSO vehicle control)": "* (An EC2x>1 μM is indicated by one star (*))", "MFI (maximum fold increase in IKBKAP protein abundance relative to the vehicle control)": "** (between >1.9 and ≤2.9 is indicated by two stars (**))"}
{"smiles": "N#Cc1cc(NCc2cccs2)c2scc(Br)c2n1", "note": "[Compound 11, 3-bromo-7-{[(thiophen-2-yl)methyl]amino}thieno[3,2-b]pyridine-5-carbonitrile]", "EC2x for IKBKAP protein expression (concentration producing two times the amount of IKBKAP protein vs DMSO vehicle control)": "*** (between >0.02 μM and ≤0.5 μM is indicated by three stars (***))", "MFI (maximum fold increase in IKBKAP protein abundance relative to the vehicle control)": "** (between >1.9 and ≤2.9 is indicated by two stars (**))"}
{"smiles": "CN[C@@H](C)c1sc2c(NCc3ccco3)cc(Cl)nc2c1C", "note": "[Compound 26, 5-chloro-N-[(furan-2-yl)methyl]-3-methyl-2-[(1S)-1-(methylamino)ethyl]thieno[3,2-b]pyridin-7-amine]", "EC2x for IKBKAP protein expression (concentration producing two times the amount of IKBKAP protein vs DMSO vehicle control)": "*** (between >0.02 μM and ≤0.5 μM is indicated by three stars (***))", "MFI (maximum fold increase in IKBKAP protein abundance relative to the vehicle control)": "**** (between >3.9 and ≤4.9 is indicated by four stars (****))"}
{"smiles": "N#CC[C@H](N)Cc1sc2c(NCc3ccco3)cc(Cl)nc2c1Br", "note": "[Compound 103, (3S)-3-amino-4-(3-bromo-5-chloro-7-{[(furan-2-yl)methyl]amino}thieno[3,2-b]pyridin-2-yl)butanenitrile]", "EC2x for IKBKAP protein expression (concentration producing two times the amount of IKBKAP protein vs DMSO vehicle control)": "**** (between >0.005 μM and ≤0.02 μM is indicated by four stars (****))", "MFI (maximum fold increase in IKBKAP protein abundance relative to the vehicle control)": "**** (between >3.9 and ≤4.9 is indicated by four stars (****))"}
{"smiles": "C[C@H](N)Cc1sc2c(NCc3cccs3)cc(C#N)nc2c1C#N", "note": "[Compound 102, 2-[(2S)-2-aminopropyl]-7-{[(thiophen-2-yl)methyl]amino}thieno[3,2-b]pyridine-3,5-dicarbonitrile]", "EC2x for IKBKAP protein expression (concentration producing two times the amount of IKBKAP protein vs DMSO vehicle control)": "***** (≤0.005 μM is indicated by five stars (*****))", "MFI (maximum fold increase in IKBKAP protein abundance relative to the vehicle control)": "***** (>4.9 is indicated by five stars (*****))"}
{"smiles": "Cc1c(C[C@@H](N)C(=O)Nc2ccc(C#N)cc2)sc2c(NCc3ccco3)cc(Cl)nc12", "note": "[Compound 133, 3-(5-chloro-7-{[(furan-2-yl)methyl]amino}-3-methylthieno[3,2-b]pyridin-2-yl)-N-(4-cyanophenyl)-D-alaninamide]", "EC2x for IKBKAP protein expression (concentration producing two times the amount of IKBKAP protein vs DMSO vehicle control)": "***** (≤0.005 μM is indicated by five stars (*****))", "MFI (maximum fold increase in IKBKAP protein abundance relative to the vehicle control)": "***** (>4.9 is indicated by five stars (*****))"}
{"smiles": "Cc1cc(NCc2nccs2)c2scc(Cl)c2n1", "note": "[Compound 10, 3-chloro-5-methyl-N-[(1,3-thiazol-2-yl)methyl]thieno[3,2-b]pyridin-7-amine]", "EC2x for IKBKAP protein expression (concentration producing two times the amount of IKBKAP protein vs DMSO vehicle control)": "* (An EC2x>1 μM is indicated by one star (*))", "MFI (maximum fold increase in IKBKAP protein abundance relative to the vehicle control)": "* (An MFI≤1.9 is indicated by one star (*))"}
{"smiles": "C#C[C@H](N)Cc1sc2c(NCc3ccco3)cc(Cl)nc2c1Cl", "note": "[Compound 166, 2-[(2R)-2-aminobut-3-yn-1-yl]-3,5-dichloro-N-[(furan-2-yl)methyl]thieno[3,2-b]pyridin-7-amine]", "EC2x for IKBKAP protein expression (concentration producing two times the amount of IKBKAP protein vs DMSO vehicle control)": "***** (≤0.005 μM is indicated by five stars (*****))", "MFI (maximum fold increase in IKBKAP protein abundance relative to the vehicle control)": "**** (between >3.9 and ≤4.9 is indicated by four stars (****))"}
{"smiles": "C[C@H](N)Cc1sc2c(NCc3nccs3)cc(Cl)nc2c1Br", "note": "[Compound 43, 2-[(2S)-2-aminopropyl]-3-bromo-5-chloro-N-[(1,3-thiazol-2-yl)methyl]thieno[3,2-b]pyridin-7-amine]", "EC2x for IKBKAP protein expression (concentration producing two times the amount of IKBKAP protein vs DMSO vehicle control)": "***** (≤0.005 μM is indicated by five stars (*****))", "MFI (maximum fold increase in IKBKAP protein abundance relative to the vehicle control)": "***** (>4.9 is indicated by five stars (*****))"}
{"smiles": "C[C@H](N)C(F)(F)c1sc2c(NCc3cccs3)cc(Cl)nc2c1Cl", "note": "[Compound 132, 2-[(2S)-2-amino-1,1-difluoropropyl]-3,5-dichloro-N-[(thiophen-2-yl)methyl]thieno[3,2-b]pyridin-7-amine]", "EC2x for IKBKAP protein expression (concentration producing two times the amount of IKBKAP protein vs DMSO vehicle control)": "**** (between >0.005 μM and ≤0.02 μM is indicated by four stars (****))", "MFI (maximum fold increase in IKBKAP protein abundance relative to the vehicle control)": "***** (>4.9 is indicated by five stars (*****))"}
{"smiles": "N[C@@H](CF)Cc1sc2c(NCc3nccs3)cc(Cl)nc2c1C1CC1", "note": "[Compound 87, 2-[(2R)-2-amino-3-fluoropropyl]-5-chloro-3-cyclopropyl-N-[(1,3-thiazol-2-yl)methyl]thieno[3,2-b]pyridin-7-amine]", "EC2x for IKBKAP protein expression (concentration producing two times the amount of IKBKAP protein vs DMSO vehicle control)": "*** (between >0.02 μM and ≤0.5 μM is indicated by three stars (***))", "MFI (maximum fold increase in IKBKAP protein abundance relative to the vehicle control)": "*** (between >2.9 and ≤3.9 is indicated by three stars (***))"}
{"smiles": "C[C@H](N)C(O)c1sc2c(NCc3ccco3)cc(Cl)nc2c1Br", "note": "(stereo partly drawn) [Compound 153, (2S)-2-amino-1-(3-bromo-5-chloro-7-{[(furan-2-yl)methyl]amino}thieno[3,2-b]pyridin-2-yl)propan-1-ol]", "EC2x for IKBKAP protein expression (concentration producing two times the amount of IKBKAP protein vs DMSO vehicle control)": "*** (between >0.02 μM and ≤0.5 μM is indicated by three stars (***))", "MFI (maximum fold increase in IKBKAP protein abundance relative to the vehicle control)": "** (between >1.9 and ≤2.9 is indicated by two stars (**))"}
{"smiles": "Cc1c([C@@H](C)[C@H](C)N)sc2c(NCc3ccco3)cc(Cl)nc12", "note": "[Compound 151, 2-[(2S,3S)-3-aminobutan-2-yl]-5-chloro-N-[(furan-2-yl)methyl]-3-methylthieno[3,2-b]pyridin-7-amine]", "EC2x for IKBKAP protein expression (concentration producing two times the amount of IKBKAP protein vs DMSO vehicle control)": "*** (between >0.02 μM and ≤0.5 μM is indicated by three stars (***))", "MFI (maximum fold increase in IKBKAP protein abundance relative to the vehicle control)": "** (between >1.9 and ≤2.9 is indicated by two stars (**))"}
{"smiles": "N[C@@H](CCF)Cc1sc2c(NCc3nccs3)cc(Cl)nc2c1Br", "note": "[Compound 88, 2-[(2S)-2-amino-4-fluorobutyl]-3-bromo-5-chloro-N-[(1,3-thiazol-2-yl)methyl]thieno[3,2-b]pyridin-7-amine]", "EC2x for IKBKAP protein expression (concentration producing two times the amount of IKBKAP protein vs DMSO vehicle control)": "***** (≤0.005 μM is indicated by five stars (*****))", "MFI (maximum fold increase in IKBKAP protein abundance relative to the vehicle control)": "***** (>4.9 is indicated by five stars (*****))"}
{"smiles": "Cc1ccc(NC(=O)[C@H](N)Cc2sc3c(NCc4ccco4)cc(Cl)nc3c2C)cc1", "note": "[Compound 142, 3-(5-chloro-7-{[(furan-2-yl)methyl]amino}-3-methylthieno[3,2-b]pyridin-2-yl)-N-(4-methylphenyl)-D-alaninamide]", "EC2x for IKBKAP protein expression (concentration producing two times the amount of IKBKAP protein vs DMSO vehicle control)": "**** (between >0.005 μM and ≤0.02 μM is indicated by four stars (****))", "MFI (maximum fold increase in IKBKAP protein abundance relative to the vehicle control)": "***** (>4.9 is indicated by five stars (*****))"}
